Measured values as given in PubChem BioAssay AID330 (DTP/NCI, 2004).
Toxic doses and inconclusive results are not listed. Rule for the calls: active = survival T/C of 150% or more; inactive = T/C below 125% in these data.

Test system: P388 leukemia ip, CD2F1 mice, survival T/C
Assay: NCI In Vivo Anticancer Drug Screen. Data for tumor model P388 Leukemia (intraperitoneal) in CD2F1 (CDF1) mice
Conditions: endpoint: median survival time, higher = longer survival
In short: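 Mice carrying the transplanted tumor received test compound or vehicle. Survival was recorded in each group, and the value is the treated-group measurement divided by that of the vehicle-treated control group.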

[1] = dose: 100.0 mg/kg/injection, schedule: Q04DX002 (ip), vehicle: saline with Tween-80
[2] = dose: 50.0 mg/kg/injection, schedule: Q01DX005 (ip), vehicle: saline with Tween-80
[3] = dose: 60.0 mg/kg/injection, schedule: Q01DX005 (ip), vehicle: saline with Tween-80
[4] = dose: 120.0 mg/kg/injection, schedule: Q01DX005 (ip), vehicle: saline with Tween-80
[5] = dose: 240.0 mg/kg/injection, schedule: Q01DX005 (ip), vehicle: saline with Tween-80
[6] = dose: 50.0 mg/kg/injection, schedule: Q01DX009 (ip), vehicle: Klucel (hydroxypropylcellulose) (HPC)
[7] = dose: 100.0 mg/kg/injection, schedule: Q01DX009 (ip), vehicle: Klucel (hydroxypropylcellulose) (HPC)
[8] = dose: 100.0 mg/kg/injection, schedule: Q04DX003 (ip), vehicle: Klucel (hydroxypropylcellulose) (HPC)
[9] = dose: 100.0 mg/kg/injection, schedule: Q01DX005 (ip), vehicle: saline with Tween-80
[10] = dose: 200.0 mg/kg/injection, schedule: Q01DX005 (ip), vehicle: saline with Tween-80
[11] = dose: 200.0 mg/kg/injection, schedule: Q01DX009 (ip), vehicle: Klucel (hydroxypropylcellulose) (HPC)

Measured: T/C

CC(=O)c1c(C)[nH]c2c1[nH]c1ccccc12
inactive: dose: 60.0 mg/kg/injection, schedule: Q01DX005 (ip), vehicle: Klucel (hydroxypropylcellulose) (HPC) 93 % of control | dose: 120.0 mg/kg/injection, schedule: Q01DX005 (ip), vehicle: Klucel (hydroxypropylcellulose) (HPC) 101 % of control

COC1C(CN(C)N=Nc2ccccc2C(N)=O)OC2OC(C)(C)OC21 (stereo unspecified)
inactive: [1] 94 % of control | dose: 200.0 mg/kg/injection, schedule: Q04DX002 (ip), vehicle: saline with Tween-80 91 % of control | dose: 400.0 mg/kg/injection, schedule: Q04DX002 (ip), vehicle: saline with Tween-80 91 % of control

Cc1ccc(NC2=C([n+]3ccc(C)cc3)C(=O)c3ccccc3C2=O)cc1
inactive: dose: 12.5 mg/kg/injection, schedule: Q01DX005 (ip), vehicle: saline with Tween-80 100 % of control | dose: 25.0 mg/kg/injection, schedule: Q01DX005 (ip), vehicle: saline with Tween-80 109 % of control | [2] 124 % of control

CN(C)C1C(O)C2Oc3c(cc(O)c4c3C(=O)c3cc5c(c(O)c3C4=O)C(OCCN)CC(C)(O)C5)C(C)(O2)C1O (stereo unspecified)
inactive: dose: 5.0 mg/kg/injection, schedule: Q01DX009 (ip), vehicle: other 99 % of control | dose: 10.0 mg/kg/injection, schedule: Q01DX009 (ip), vehicle: other 101 % of control | dose: 20.0 mg/kg/injection, schedule: Q01DX009 (ip), vehicle: other 106 % of control | dose: 40.0 mg/kg/injection, schedule: Q01DX009 (ip), vehicle: other 117 % of control

CCOC(=O)C1=C(C)Nc2cc[nH]c(=O)c2C1c1ccccc1Cl (stereo unspecified)
inactive: [3] 107 % of control | [4] 103 % of control | [5] 104 % of control

COc1ccc(-c2nc(SCC(=O)O)n(-c3ccccn3)c2-c2ccc(OC)cc2)cc1
inactive: dose: 100.0 mg/kg/injection, schedule: Q01DX001 (ip), vehicle: water 100 % of control | dose: 200.0 mg/kg/injection, schedule: Q01DX001 (ip), vehicle: water 91 % of control

O=[N+]([O-])c1ccccc1/C=C\c1ccccn1
inactive: dose: 50.0 mg/kg/injection, schedule: Q01DX005 (ip), vehicle: Klucel (hydroxypropylcellulose) (HPC) 104 % of control | dose: 100.0 mg/kg/injection, schedule: Q01DX005 (ip), vehicle: Klucel (hydroxypropylcellulose) (HPC) 101 % of control | dose: 200.0 mg/kg/injection, schedule: Q01DX005 (ip), vehicle: Klucel (hydroxypropylcellulose) (HPC) 101 % of control

CCN1CC(O)Cc2ccccc21 (stereo unspecified)
inactive: [3] 100 % of control | [4] 94 % of control

CSC(=S)c1c(O)ccc2ccccc12
inactive: [1] 102 % of control

BrCCC1CO1 (stereo unspecified)
inactive: dose: 50.0 mg/kg/injection, schedule: Q01DX009 (ip), vehicle: saline 98 % of control | dose: 100.0 mg/kg/injection, schedule: Q01DX009 (ip), vehicle: saline 100 % of control | dose: 200.0 mg/kg/injection, schedule: Q01DX009 (ip), vehicle: saline 117 % of control

CC1(C)C(=O)N(Br)C(=O)N1Br
inactive: dose: 12.5 mg/kg/injection, schedule: Q01DX009 (ip), vehicle: Klucel (hydroxypropylcellulose) (HPC) 101 % of control | dose: 25.0 mg/kg/injection, schedule: Q01DX009 (ip), vehicle: Klucel (hydroxypropylcellulose) (HPC) 99 % of control | [6] 99 % of control | [7] 90 % of control

COc1ccc(C(Cc2ccccc2)C2(O)C(=O)NC(=O)NC2=O)cc1 (stereo unspecified)
inactive: [3] 103 % of control | [4] 99 % of control | [5] 98 % of control

C/C(=N\N=C(\[Se])N1CC(C)OC(C)C1)c1ccccn1 (stereo unspecified)
inactive: dose: 10.0 mg/kg/injection, schedule: Q04DX003 (ip), vehicle: saline with Tween-80 100 % of control | dose: 25.0 mg/kg/injection, schedule: Q04DX003 (ip), vehicle: saline with Tween-80 106 % of control | dose: 50.0 mg/kg/injection, schedule: Q04DX003 (ip), vehicle: saline with Tween-80 107 % of control | dose: 100.0 mg/kg/injection, schedule: Q04DX003 (ip), vehicle: saline with Tween-80 109 % of control | dose: 200.0 mg/kg/injection, schedule: Q04DX003 (ip), vehicle: saline with Tween-80 121 % of control

Clc1ccc(CN2Cc3ccc4cccnc4c3OC2c2ccncc2)cc1Cl (stereo unspecified)
inactive: [8] 100 % of control | dose: 200.0 mg/kg/injection, schedule: Q04DX003 (ip), vehicle: Klucel (hydroxypropylcellulose) (HPC) 96 % of control | dose: 400.0 mg/kg/injection, schedule: Q04DX003 (ip), vehicle: Klucel (hydroxypropylcellulose) (HPC) 103 % of control

CC1(C)OC2C(CO)OC(n3c(Br)nc4c(N)ncnc43)C2O1 (stereo unspecified)
inactive: [2] 100 % of control | [9] 103 % of control | [10] 100 % of control

CCCCCCC1(/C=C\c2ccccc2Cl)OCCO1
inactive: [6] 103 % of control | [7] 94 % of control | [11] 108 % of control

C/C=C1\CN2CCC34c5ccccc5N(C(C)=O)C3C(C=O)C1CC24 (stereo unspecified)
inactive: dose: 7.88 mg/kg/injection, schedule: Q01DX005 (ip), vehicle: saline + Tween-80 + alcohol 101 % of control | dose: 15.75 mg/kg/injection, schedule: Q01DX005 (ip), vehicle: saline + Tween-80 + alcohol 109 % of control | dose: 31.5 mg/kg/injection, schedule: Q01DX005 (ip), vehicle: saline + Tween-80 + alcohol 103 % of control | dose: 63.0 mg/kg/injection, schedule: Q01DX005 (ip), vehicle: saline + Tween-80 + alcohol 103 % of control

CCCCCCCCCCCCC1C(=O)NCCNCCCNCCNC1=O
inactive: dose: 12.5 mg/kg/injection, schedule: Q01DX005 (ip), vehicle: saline 101 % of control | dose: 25.0 mg/kg/injection, schedule: Q01DX005 (ip), vehicle: saline 97 % of control | dose: 50.0 mg/kg/injection, schedule: Q01DX005 (ip), vehicle: saline 105 % of control

CC(C)(C)OC(=O)NN=C1CCC(C(C)(C)C)CC1 (stereo unspecified)
inactive: dose: 25.0 mg/kg/injection, schedule: Q04DX003 (ip), vehicle: Klucel (hydroxypropylcellulose) (HPC) 100 % of control | dose: 50.0 mg/kg/injection, schedule: Q04DX003 (ip), vehicle: Klucel (hydroxypropylcellulose) (HPC) 95 % of control | [8] 100 % of control

O=C(Nc1ccc(Cl)c(Cl)c1)C1C(=O)C(=O)N(c2ccc(Cl)c(Cl)c2)C1=O (stereo unspecified)
inactive: [6] 97 % of control | [3] 101 % of control | [7] 109 % of control | [4] 100 % of control | [11] 103 % of control | [5] 103 % of control

CN1CCCN(C)C1c1cc(Cl)ccc1O
inactive: dose: 6.25 mg/kg/injection, schedule: Q01DX009 (ip), vehicle: saline sonified 90 % of control | dose: 12.5 mg/kg/injection, schedule: Q01DX009 (ip), vehicle: saline sonified 100 % of control | dose: 25.0 mg/kg/injection, schedule: Q01DX009 (ip), vehicle: saline sonified 90 % of control

C=C(Br)COc1ccc2c(C)cc(=O)oc2c1
inactive: [3] 115 % of control | [4] 100 % of control | [5] 96 % of control

COc1ccc2[nH]c(=O)c(C(C)=O)c(O)c2c1
inactive: [2] 103 % of control | [9] 105 % of control | [10] 101 % of control

COC(=O)C1CC2CC(O)CN(CCc3c1[nH]c1ccccc31)C2 (stereo unspecified)
inactive: dose: 3.63 mg/kg/injection, schedule: Q01DX005 (ip), vehicle: Klucel (hydroxypropylcellulose) (HPC) 104 % of control | dose: 7.25 mg/kg/injection, schedule: Q01DX005 (ip), vehicle: Klucel (hydroxypropylcellulose) (HPC) 100 % of control | dose: 14.5 mg/kg/injection, schedule: Q01DX005 (ip), vehicle: Klucel (hydroxypropylcellulose) (HPC) 104 % of control | dose: 29.0 mg/kg/injection, schedule: Q01DX005 (ip), vehicle: Klucel (hydroxypropylcellulose) (HPC) 89 % of control
